Experiments:
[1] = test system: blood activated clotting time (ACT); assay: Blood activated clotting time (ACT); format: in vivo, Sprague Dawley rats; settings: 8 minutes following heparin injection (500 IU/kg, portal vein); baseline approximately 110 seconds
Method: (§1) Four female Sprague Dawley rats each weighing 300-320 g were anesthetized with a mixture of xylaxine/ketamine. When a suitable plane of anesthesia was reached, a ventral midline incision was made in the abdomen allowing for visualization and manipulation of the liver's right lobe. Further manipulation to expose the portal vein was performed to allow for withdrawal of 1 mL of blood for measurement of blood activated clotting time (ACT).
(§2) To determine whether hemostasis could be achieved in the presence of anticoagulant, heparin was then administered to the animal at a dose of 500 IU per kg body weight injected directly into the portal vein. Two minutes after heparin injection, a second 4 mm diameter biopsy punch lesion was made adjacent to the first lesion in the right lobe of the liver and 0.5 ml of a 3% aqueous RADA4 peptide solution was again added to the lesion.

[2] = test system: 4 mm diameter biopsy punch lesion of the liver's right lobe with brisk bleeding; assay: Rat liver biopsy punch model, hemostasis; format: in vivo, Sprague Dawley rats
Method: (§3) A self-assembling peptide having the sequence RADARADARADARADA (RADA4; SEQ. ID. NO: 1) acetate salt was reconstituted in sterile water to 3%. The material was stored at […] in a cooler with cold pack over it until brought to the study facility. Lyo cakes of 3 vials were crushed using a spatula and then combined in 1 vial. The combined content was reconstituted with 1 mL volume of sterile water for injection. The lyophilized formulation went in solution easily in 1-2 minutes and was vortexed for 30 seconds before use.
as §1
A wooden spatula was then placed behind the right lobe of the liver and a 4 mm diameter biopsy punch was used to remove a full thickness 4 mm diameter section of the liver resulting in a lesion with brisk bleeding.
Immediately, 0.5 mL of a 3% aqueous solution of pre-formulated RADA4 peptide reconstituted in sterile water was applied to the biopsy site using a 22½ gauge needle.

[3] = test system: second 4 mm diameter biopsy punch lesion in the right lobe of the liver; assay: Rat liver biopsy punch model, hemostasis in the presence of anticoagulant (heparin); format: in vivo, Sprague Dawley rats
Method: as §2

[4] = Reconstitution of lyophilized formulation in sterile water for injection; format: physicochemical; settings: lyo cakes of 3 vials combined, reconstituted with 1 mL sterile water for injection
Method: as §3

Substance | ACT measurement [1] | time until bleeding stopped completely ([2]; 0.5 mL of 3% aqueous solution applied to 4 mm liver biopsy site, no anticoagulant) | producing hemostasis (overall outcome) ([2]; 3% aqueous solution, absence of clinically significant anticoagulation) | stability of hemostasis at later assessment ([2]; 10 minutes following application, no anticoagulant) | time until bleeding stopped ([3]; 0.5 ml of 3% aqueous solution, lesion made two minutes after heparin 500 IU per kg into the portal vein) | producing hemostasis (overall outcome) ([3]; 3% aqueous solution, presence of clinically significant anticoagulation) | stability of hemostasis at later assessment ([3]; at 10 minutes, after heparin 500 IU per kg) | time for lyophilized formulation to go in solution [4]
heparin | greater than 1,300 seconds | – | – | – | – | – | – | –
RADARADARADARADA [RADA4] | – | ≤ 30 s | successful | stable without further bleeding | ≤ 30 s | successful | stable | 1 to 2 min

Reference: US9339476B2, “Implantable meshes for controlling the movement of fluids” (Arch Biosurgery, Inc., priority 2013, dated 2016)
